Like-named read-outs stand apart in the source and are kept apart here.
How the values were obtained:
CDK2/Cyclin E1 complex = CDK2/Cyclin E1 complex (Homo sapiens, UniProt P24941); experiment: CDK2 kinase inhibition assay (Caliper/LabChip EZ Reader)
Description: (§2) Compounds described herein were assayed for inhibition of CDK7, CDK9, CDK12, and CDK2 activity at Biortus Biosciences (Jiangyin, Jiangsu Province, P.R. of China) using kinase assays for each CDK developed with a Caliper/LabChip EZ Reader (Perkin Elmer, Waltham, Mass.).
(§3) Furthermore, the CDK9 inhibition assay used CDK9/Cyclin T1 complex (8 nM) and “5-FAM-CDK9tide” peptide substrate (2 μM, synthesized fluorophore-labeled peptide with the following sequence: 5-FAM-GSRTPMY-NH2 (SEQ ID NO:2) where 5-FAM is defined above and NH2 signifies a C-terminal amide) with 10 mM MgCl2 in the buffer composition listed above. The CDK12 inhibition assay used CDK12 (aa686-1082)/Cyclin K complex (50 nM) and “5-FAM-CDK9tide” (2 μM) as defined above, with 2 mM MgCl2 in the buffer composition above. Additionally, the CDK2 inhibition assay used CDK2/Cyclin E1 complex (0.5 nM) and “5-FAM-CDK7tide” (2 μM; defined above) with 2 mM MgCl2 in the buffer composition above.
(§4) The incubation period at 27° C. for each CDK inhibition assay was chosen such that the fraction of phosphorylated peptide product produced in each assay, relative to the total peptide concentration, was approximately 20% (±5%) for the uninhibited kinase (35 min. for CDK7, 35 min. for CDK2, 3 hr. for CDK12, 15 min. for CDK9).

[1] = target: CDK7/Cyclin H/MAT1 complex (Homo sapiens, UniProt P50613); experiment: CDK7 kinase inhibition assay (Caliper/LabChip EZ Reader)
Description: as §2, §3, §4

HCC70 cells = experiment: Inhibition of cell proliferation (CyQUANT Direct), HCC70; type: cell-based, human; settings: HCC70, 72-hour
Description: (§1) HCC70 and MB453 cells are cell lines derived from human triple negative breast cancer COV318 and COV504 cells are cell lines derived from human ovarian cancer. Representative compounds of the invention were tested at different concentrations (from 4 μM to 126.4 pM; 0.5 log serial dilutions) for their ability to inhibit the proliferation of each of these cell lines. Known CDK inhibitors dinaciclib or N-((1S,3R)-3-((5-chloro-4-(1H-indol-3-yl) pyrimidin-2-yl)amino)cyclohexyl)-5-((E)-4-(dimethylamino)but-2-enamido)picolinamide and triptolide were used as positive controls. Cells were seeded at approximately 2,000 cells/well and grown in ATCC-formulated RPMI-1640 Medium (ATCC 30-2001)+10% FBS. The cells were cultured at 37° C. in a humidified chamber in the presence of 5% CO2. Proliferation assays were conducted over a 72-hour time period. CyQUANT® Direct Cell Proliferation Assay (Life Technologies, Chicago, Ill. USA) was used to assess the anti-proliferative effects of the compounds following manufacturer's directions and utilizing the reagents supplied with the CyQUANT® Direct Cell kit.

CDK9/Cyclin T1 complex = CDK9/Cyclin T1 complex (Homo sapiens, UniProt P50750); experiment: CDK9 kinase inhibition assay (Caliper/LabChip EZ Reader)
Description: as §2, §3, §4

COV318 cells = experiment: Inhibition of cell proliferation (CyQUANT Direct), COV318; type: cell-based, human; settings: COV318, 72-hour
Description: as §1

COV504 cells = experiment: Inhibition of cell proliferation (CyQUANT Direct), COV504; type: cell-based, human; settings: COV504, 72-hour
Description: as §1

MB453 cells = experiment: Inhibition of cell proliferation (CyQUANT Direct), MB453; type: cell-based, human; settings: MB453, 72-hour
Description: as §1

[2] = target: CDK12 (aa686-1082)/Cyclin K complex (Homo sapiens, UniProt Q9NYV4); experiment: CDK12 kinase inhibition assay (Caliper/LabChip EZ Reader)
Description: as §2, §3, §4

[3] = read-out: CDK2 IC50, CDK2/Cyclin E1 0.5 nM, ATP 2 mM, 35 min at 27° C.
[4] = read-out: CDK7 IC50, CDK7/Cyclin H/MAT1 6 nM, ATP 2 mM, 35 min at 27° C.
[5] = read-out: CDK9 IC50, CDK9/Cyclin T1 8 nM, ATP 2 mM, 15 min at 27° C.
[6] = read-out: CDK12 IC50, CDK12 (aa686-1082)/Cyclin K 50 nM, ATP 2 mM, 3 hr at 27° C.

Chain of CDK7/Cyclin H/MAT1 complex (P50613 whole entry): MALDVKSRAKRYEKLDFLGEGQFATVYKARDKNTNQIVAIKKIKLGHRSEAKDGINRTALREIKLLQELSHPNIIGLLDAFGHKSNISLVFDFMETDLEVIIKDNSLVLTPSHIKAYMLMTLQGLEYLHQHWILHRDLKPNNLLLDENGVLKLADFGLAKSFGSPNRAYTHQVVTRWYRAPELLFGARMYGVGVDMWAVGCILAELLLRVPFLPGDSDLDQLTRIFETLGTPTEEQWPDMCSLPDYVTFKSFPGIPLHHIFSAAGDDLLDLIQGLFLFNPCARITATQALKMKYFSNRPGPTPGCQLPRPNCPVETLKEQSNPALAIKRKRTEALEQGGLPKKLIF
Chain of CDK7/Cyclin H/MAT1 complex (P51946 whole entry partner): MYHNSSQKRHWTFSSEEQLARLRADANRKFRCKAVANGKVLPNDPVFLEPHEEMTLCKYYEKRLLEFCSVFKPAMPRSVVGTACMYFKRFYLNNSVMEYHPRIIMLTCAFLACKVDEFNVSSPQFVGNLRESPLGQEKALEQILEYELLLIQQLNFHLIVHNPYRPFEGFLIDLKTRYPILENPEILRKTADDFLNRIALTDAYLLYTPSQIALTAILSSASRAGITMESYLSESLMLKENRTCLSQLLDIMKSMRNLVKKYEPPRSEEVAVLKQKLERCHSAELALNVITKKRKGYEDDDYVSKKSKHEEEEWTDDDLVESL
Chain of CDK7/Cyclin H/MAT1 complex (P51948 whole entry partner): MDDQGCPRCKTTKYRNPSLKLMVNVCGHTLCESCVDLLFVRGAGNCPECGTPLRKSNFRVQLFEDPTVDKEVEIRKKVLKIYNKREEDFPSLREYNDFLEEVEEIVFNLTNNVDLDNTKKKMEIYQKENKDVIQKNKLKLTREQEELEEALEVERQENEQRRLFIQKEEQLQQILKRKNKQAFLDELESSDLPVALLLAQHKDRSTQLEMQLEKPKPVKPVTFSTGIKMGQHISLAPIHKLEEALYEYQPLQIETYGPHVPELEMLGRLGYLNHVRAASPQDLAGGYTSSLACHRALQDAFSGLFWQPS
Chain of CDK12 (aa686-1082)/Cyclin K complex (Q9NYV4 686-1082): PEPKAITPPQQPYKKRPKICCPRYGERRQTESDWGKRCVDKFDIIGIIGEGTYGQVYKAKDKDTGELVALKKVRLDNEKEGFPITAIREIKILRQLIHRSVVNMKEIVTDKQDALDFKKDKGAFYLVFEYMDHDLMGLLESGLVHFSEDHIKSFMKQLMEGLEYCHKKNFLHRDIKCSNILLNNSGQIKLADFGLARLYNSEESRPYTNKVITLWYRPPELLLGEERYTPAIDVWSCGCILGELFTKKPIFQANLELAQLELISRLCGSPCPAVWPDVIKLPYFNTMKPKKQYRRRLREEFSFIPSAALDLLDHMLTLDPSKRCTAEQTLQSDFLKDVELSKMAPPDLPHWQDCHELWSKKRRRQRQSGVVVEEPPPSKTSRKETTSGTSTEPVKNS
Chain of CDK12 (aa686-1082)/Cyclin K complex (O75909 whole entry partner, the tested form may be a part): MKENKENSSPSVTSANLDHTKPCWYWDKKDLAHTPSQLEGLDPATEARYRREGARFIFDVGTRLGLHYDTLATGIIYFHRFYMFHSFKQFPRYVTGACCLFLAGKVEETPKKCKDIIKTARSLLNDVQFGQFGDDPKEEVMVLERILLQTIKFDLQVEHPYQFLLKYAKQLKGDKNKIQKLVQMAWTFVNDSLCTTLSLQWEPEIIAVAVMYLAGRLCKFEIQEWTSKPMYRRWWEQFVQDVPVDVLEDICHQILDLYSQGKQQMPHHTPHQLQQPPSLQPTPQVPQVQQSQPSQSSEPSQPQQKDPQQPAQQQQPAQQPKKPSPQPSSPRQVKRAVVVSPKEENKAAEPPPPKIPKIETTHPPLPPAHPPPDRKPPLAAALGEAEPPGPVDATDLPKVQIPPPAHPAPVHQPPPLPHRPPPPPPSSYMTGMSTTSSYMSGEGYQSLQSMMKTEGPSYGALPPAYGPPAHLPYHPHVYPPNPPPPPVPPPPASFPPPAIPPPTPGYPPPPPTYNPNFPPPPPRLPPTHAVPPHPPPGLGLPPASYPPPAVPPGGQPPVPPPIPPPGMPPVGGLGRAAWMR
Chain of CDK9/Cyclin T1 complex (P50750 whole entry): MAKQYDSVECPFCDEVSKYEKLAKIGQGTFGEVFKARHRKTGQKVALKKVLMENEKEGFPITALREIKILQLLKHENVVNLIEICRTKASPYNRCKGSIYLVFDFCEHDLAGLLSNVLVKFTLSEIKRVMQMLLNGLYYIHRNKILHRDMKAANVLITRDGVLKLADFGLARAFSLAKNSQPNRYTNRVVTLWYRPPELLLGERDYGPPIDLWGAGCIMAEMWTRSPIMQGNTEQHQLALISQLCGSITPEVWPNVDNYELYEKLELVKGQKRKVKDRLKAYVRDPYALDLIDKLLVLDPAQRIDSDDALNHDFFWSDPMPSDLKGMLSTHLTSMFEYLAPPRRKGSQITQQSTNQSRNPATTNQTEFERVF
Chain of CDK9/Cyclin T1 complex (O60563 whole entry partner): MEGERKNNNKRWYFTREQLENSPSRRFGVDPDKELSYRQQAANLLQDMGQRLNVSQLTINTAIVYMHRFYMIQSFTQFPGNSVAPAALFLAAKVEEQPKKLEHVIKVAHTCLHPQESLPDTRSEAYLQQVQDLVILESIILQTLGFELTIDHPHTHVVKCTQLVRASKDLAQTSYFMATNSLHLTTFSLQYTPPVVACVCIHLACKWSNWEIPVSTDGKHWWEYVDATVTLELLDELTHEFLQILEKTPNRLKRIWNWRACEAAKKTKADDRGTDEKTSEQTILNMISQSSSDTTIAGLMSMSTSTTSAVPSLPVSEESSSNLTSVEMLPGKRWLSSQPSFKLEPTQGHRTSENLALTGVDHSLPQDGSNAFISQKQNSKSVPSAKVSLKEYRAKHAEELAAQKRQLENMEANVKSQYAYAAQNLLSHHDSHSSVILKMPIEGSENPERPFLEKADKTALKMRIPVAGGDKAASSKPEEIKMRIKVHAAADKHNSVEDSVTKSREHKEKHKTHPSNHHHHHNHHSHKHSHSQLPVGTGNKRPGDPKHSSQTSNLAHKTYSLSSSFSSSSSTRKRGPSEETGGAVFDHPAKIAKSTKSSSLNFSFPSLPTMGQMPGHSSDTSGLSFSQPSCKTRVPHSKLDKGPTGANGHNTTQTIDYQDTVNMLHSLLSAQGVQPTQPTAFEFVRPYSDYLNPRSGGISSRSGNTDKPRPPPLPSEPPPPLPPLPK

Molecule | IC50 (CDK2/Cyclin E1 complex) [nM] | IC50 [1] [nM] | IC50 (HCC70 cells; Homo sapiens) [nM] | IC50 (CDK9/Cyclin T1 complex) [nM] | IC50 (COV318 cells; Homo sapiens) [nM] | IC50 (COV504 cells; Homo sapiens) [nM] | IC50 (MB453 cells; Homo sapiens) [nM] | IC50 [2] [nM] | IC50 (CDK2/Cyclin E1 complex; [3]) [nM] | IC50 [1, 4] [nM] | IC50 (HCC70 cells) [nM] | IC50 (CDK9/Cyclin T1 complex; [5]) [nM] | IC50 (COV318 cells) [nM] | IC50 (COV504 cells) [nM] | IC50 (MB453 cells) [nM] | IC50 [2, 6] [nM]
Cc1noc(C)c1-c1ccc2c(-c3nc(N[C@@H]4CNCC(C)(C)C4)ncc3C(F)(F)F)c[nH]c2n1 [Compound 115] | 100 to 500 | < 30 | < 100 | > 500 | < 100 | < 100 | < 100 | 100 to 500 |  |  |  |  |  |  |  | 
O[C@H]1CNC[C@@H](Nc2ncc(C(F)(F)F)c(-c3c[nH]c4cc(-c5nccs5)ccc34)n2)C1 [Compound 107] | > 500 | < 30 | 100 to 500 | > 500 | 100 to 500 | 100 to 500 | 100 to 500 | > 500 |  |  |  |  |  |  |  | 
FC(F)(F)c1cnc(N[C@H]2CCCNC2)nc1-c1c[nH]c2cc(-c3ncco3)ccc12 [Compound 110, (S)-4-(6-(oxazol-2-yl)-1H-indol-3-yl)-N-(piperidin-3-yl)-5-(trifluoromethyl)pyrimidin-2-amine] | > 500 | < 30 | < 100 | > 500 | 100 to 500 | < 100 | < 100 | > 500 |  |  |  |  |  |  |  | 
C[C@H]1CC[C@H](Nc2ncc(C(F)(F)F)c(-c3c[nH]c4nc(-c5nnnn5C)ccc34)n2)CN1 [Compound 165, N-[(3S,6S)-6-methyl-3-piperidyl]-4-[6-(1-methyltetrazol-5-yl)-1H-pyrrolo[2,3-b]pyridin-3-yl]-5-(trifluoromethyl)pyrimidin-2-amine] | > 500 | 30 to 100 | > 1000 | > 500 | > 1000 | 500 to 1000 | 500 to 1000 | > 500 |  |  |  |  |  |  |  | 
(3S,4S)-tert-butyl 3-((4-(6-(3,5-dimethylisoxazol-4-yl)-1H-indol-3-yl)-5-(trifluoromethyl)pyrimidin-2-yl)amino)-4-methylpiperidine-1-carboxylate [Compound 135] |  |  |  |  |  |  |  |  | > 500 | 30 to 100 | 100 to 500 | > 500 | > 1000 | < 100 | < 100 | > 500
CC1(C)CNC[C@@H](Nc2ncc(C(F)(F)F)c(-c3c[nH]c4nc(-c5nccs5)ccc34)n2)C1 [Compound 137, N-[(3S)-5,5-dimethyl-3-piperidyl]-4-(6-thiazol-2-yl-1H-pyrrolo[2,3-b]pyridin-3-yl)-5-(trifluoromethyl)pyrimidin-2-amine] | > 500 | < 30 | < 100 | > 500 | < 100 | < 100 | < 100 | > 500 |  |  |  |  |  |  |  | 
Cc1noc(C)c1-c1ccc2c(-c3nc(N[C@H]4CCCNC4)ncc3C(F)(F)F)n[nH]c2c1 [Compound 100, 4-[6-(3,5-dimethylisoxazol-4-yl)-1H-indazol-3-yl]-N-[(3S)-3-piperidyl]-5-(trifluoromethyl)pyrimidin-2-amine] | > 500 | < 30 | < 100 | > 500 | 100 to 500 | < 100 | < 100 | > 500 |  |  |  |  |  |  |  | 
C[C@@H]1CC[C@@H](Nc2ncc(C(F)(F)F)c(-c3c[nH]c4nc(-c5nnnn5C)ccc34)n2)CN1 [Compound 164, N-[(3R, 6R)-6-methyl-3-piperidyl]-4-[6-(1-methyltetrazol-5-yl)-1H-pyrrolo[2,3-b]pyridin-3-yl]-5-(trifluoromethyl)pyrimidin-2-amine] | > 500 | < 30 | 100 to 500 | > 500 | 500 to 1000 | < 100 | < 100 | > 500 |  |  |  |  |  |  |  | 
Cc1nscc1-c1ccc2c(-c3nc(N[C@H]4CCCNC4)ncc3C(F)(F)F)c[nH]c2c1 [Compound 128] | > 500 | < 30 | < 100 | > 500 | 100 to 500 | < 100 | < 100 | > 500 |  |  |  |  |  |  |  | 
Cc1nnc(-c2ccc3c(-c4nc(N[C@@H]5CC[C@@H](C)NC5)ncc4C(F)(F)F)c[nH]c3n2)s1 [Compound 158, N-[(3R,6R)-6-methyl-3-piperidyl]-4-[6-(5-methyl-1,3,4-thiadiazol-2-yl)-1H-pyrrolo[2,3-b]pyridin-3-yl]-5-(trifluoromethyl)pyrimidin-2-amine] | > 500 | < 30 | < 100 | > 500 | 100 to 500 | < 100 | < 100 | > 500 |  |  |  |  |  |  |  | 
Cc1nocc1-c1ccc2c(-c3nc(N[C@@H]4CC[C@@H](C)NC4)ncc3C(F)(F)F)c[nH]c2n1 [Compound 157, 4-[6-(3-methylisoxazol-4-yl)-1H-pyrrolo[2,3-b]pyridin-3-yl]-N-[(3R,6R)-6-methyl-3-piperidyl]-5-(trifluoromethyl)pyrimidin-2-amine] | > 500 | < 30 | < 100 | > 500 | < 100 | < 100 | < 100 | > 500 |  |  |  |  |  |  |  | 
Cc1nnc(-c2ccc3c(-c4nc(N[C@H]5CC[C@H](C)NC5)ncc4C(F)(F)F)c[nH]c3n2)s1 [Compound 154, N-[(3S,6S)-6-methyl-3-piperidyl]-4-[6-(5-methyl-1,3,4-thiadiazol-2-yl)-1H-pyrrolo[2,3-b]pyridin-3-yl]-5-(trifluoromethyl)pyrimidin-2-amine] | > 500 | < 30 | 100 to 500 | > 500 | > 1000 | 100 to 500 | > 1000 | > 500 |  |  |  |  |  |  |  | 
FC(F)(F)c1cnc(N[C@H]2CCCNC2)nc1-c1c[nH]c2cc(-c3cnco3)ccc12 [Compound 111, (S)-4-(6-(oxazol-5-yl)-1H-indol-3-yl)-N-(piperidin-3-yl)-5-(trifluoromethyl)pyrimidin-2-amine] | > 500 | < 30 | 100 to 500 | > 500 | 100 to 500 | < 100 | 100 to 500 | > 500 |  |  |  |  |  |  |  | 
Cc1nc(-c2ccc3c(-c4nc(N[C@@H]5CC[C@@H](C)NC5)ncc4C(F)(F)F)c[nH]c3n2)no1 [Compound 163, 4-[6-(5-methyl-1,2,4-oxadiazol-3-yl)-1H-pyrrolo[2,3-b]pyridin-3-yl]-N-[(3R, 6R)-6-methyl-3-piperidyl]-5-(trifluoromethyl)pyrimidin-2-amine] | > 500 | < 30 | < 100 | > 500 | > 1000 | < 100 | < 100 | > 500 |  |  |  |  |  |  |  | 
(S)-tert-butyl 3-((4-(6-(3,5-dimethylisothiazol-4-yl)-1H-pyrrolo[2,3-b]pyridin-3-yl)-5-(trifluoromethyl)pyrimidin-2-yl)amino)piperidine-1-carboxylate [Compound 166] |  |  |  |  |  |  |  |  | > 500 | < 30 | < 100 | > 500 | < 100 | < 100 | < 100 | > 500
Cc1noc(C)c1-c1ccc2c(-c3nc(N[C@@H]4CC[C@@H](C)NC4)ncc3C(F)(F)F)c[nH]c2n1 [Compound 125, 4-[6-(3,5-dimethylisoxazol-4-yl)-1H-pyrrolo-[2,3-b]-pyridin-3-yl]-N-[(3R,6R)-6-methyl-3-piperidyl]-5-(trifluoromethyl)pyrimidin-2-amine] | > 500 | < 30 | 100 to 500 | > 500 | 100 to 500 | < 100 | < 100 | > 500 |  |  |  |  |  |  |  | 
Cc1nocc1-c1ccc2c(-c3nc(N[C@H]4CC[C@H](C)NC4)ncc3C(F)(F)F)c[nH]c2n1 [Compound 156, 4-[6-(3-methylisoxazol-4-yl)-1H-pyrrolo[2,3-b]pyridin-3-yl]-N-[(3S,6S)-6-methyl-3-piperidyl]-5-(trifluoromethyl)pyrimidin-2-amine] | > 500 | < 30 | 500 to 1000 | > 500 | > 1000 | 100 to 500 | 100 to 500 | > 500 |  |  |  |  |  |  |  | 
